Source: the supplement of paper PMC10307832

Legend:
Experiment in all cases: relative viability (nuclei count vs DMSO), 5 days (fraction); higher = more cells survive
[1] = compound: C1COCCN1CC2=CC(=O)C(=CO2)OCCCCCSC3=C4C=CC(=CC4=NC=C3)C(F)(F)F [EHT 1864] + COc1cccc2cc(-c3nc([C@H]4CC[C@H](C(=O)O)CC4)n4ncnc(N)c34)[nH]c12 [OSI-027] (partner 0.5 µM)
How it was run: (§1)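 Lung cancer cell lines in 1536-well plates got either a single drug or a fixed anchor-drug dose together with five library-drug doses (not always all listed) in √10 steps, by pin tool, on the day after seeding. Nuclei were counted after 5 days, and relative viability is the treated-to-vehicle ratio of nuclei counts. Values are medians of duplicate plates.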

[2] = compound: C1COCCN1CC2=CC(=O)C(=CO2)OCCCCCSC3=C4C=CC(=CC4=NC=C3)C(F)(F)F [EHT 1864] + NC(=O)Nc1cc(-c2cccc(F)c2)sc1C(=O)N[C@H]1CCCNC1 [AZD7762] (partner 0.2 µM)
How it was run: as §1

[3] = compound: C1COCCN1CC2=CC(=O)C(=CO2)OCCCCCSC3=C4C=CC(=CC4=NC=C3)C(F)(F)F [EHT 1864] + COc1cc2c(Oc3ccc(NC(=O)C4(C(=O)Nc5ccc(F)cc5)CC4)cc3F)ccnc2cc1OCCCN1CCOCC1 [Foretinib] (partner 0.25 µM)
How it was run: as §1

[4] = compound: C1COCCN1CC2=CC(=O)C(=CO2)OCCCCCSC3=C4C=CC(=CC4=NC=C3)C(F)(F)F [EHT 1864] + Nc1nc2[nH]cc(CCc3ccc(C(=O)N[C@@H](CCC(=O)O)C(=O)O)cc3)c2c(=O)[nH]1 [Pemetrexed] (partner 0.2 µM)
How it was run: as §1

EPLC-272H was tested, and the relative viability ([1]; first compound 0.04 µM) was 0.296, the relative viability ([1]; first compound 0.1265 µM) was 0.254 and the relative viability ([1]; first compound 0.4 µM) was 0.257. For the same cell line, the relative viability ([1]; first compound 1.265 µM) was 0.324, the relative viability ([1]; first compound 4 µM) was 0.253 and the relative viability ([2]; first compound 0.04 µM) was 0.387. For the same cell line, the relative viability ([2]; first compound 0.1265 µM) was 0.379, the relative viability ([2]; first compound 0.4 µM) was 0.267 and the relative viability ([2]; first compound 1.265 µM) was 0.259. It also gave a relative viability ([2]; first compound 4 µM) of 0.236, a relative viability ([3]; first compound 0.04 µM) of 0.684 and a relative viability ([3]; first compound 0.1265 µM) of 0.575. For the same cell line, the relative viability ([3]; first compound 0.4 µM) was 0.694, the relative viability ([3]; first compound 1.265 µM) was 0.887 and the relative viability ([3]; first compound 4 µM) was 0.875. The relative viability ([4]; first compound 0.04 µM) was 0.317, the relative viability ([4]; first compound 0.1265 µM) was 0.332 and the relative viability ([4]; first compound 0.4 µM) was 0.317. The relative viability ([4]; first compound 1.265 µM) was 0.365 and the relative viability ([4]; first compound 4 µM) was 0.356.

LCLC-103H showed a relative viability ([1]; first compound 0.04 µM) of 0.454, a relative viability ([1]; first compound 0.1265 µM) of 0.365 and a relative viability ([1]; first compound 0.4 µM) of 0.461. For the same cell line, the relative viability ([1]; first compound 1.265 µM) was 0.44, the relative viability ([1]; first compound 4 µM) was 0.413 and the relative viability ([2]; first compound 0.04 µM) was 0.823. For the same cell line, the relative viability ([2]; first compound 0.1265 µM) was 0.686, the relative viability ([2]; first compound 0.4 µM) was 0.818 and the relative viability ([2]; first compound 1.265 µM) was 0.698. For the same cell line, the relative viability ([2]; first compound 4 µM) was 0.5, the relative viability ([3]; first compound 0.04 µM) was 0.791 and the relative viability ([3]; first compound 0.1265 µM) was 0.618. The relative viability ([3]; first compound 0.4 µM) was 0.736, the relative viability ([3]; first compound 1.265 µM) was 0.637 and the relative viability ([3]; first compound 4 µM) was 0.733. The relative viability ([4]; first compound 0.04 µM) was 0.431, the relative viability ([4]; first compound 0.1265 µM) was 0.45 and the relative viability ([4]; first compound 0.4 µM) was 0.506. It also gave a relative viability ([4]; first compound 1.265 µM) of 0.468 and a relative viability ([4]; first compound 4 µM) of 0.5.

NCI-H2405 was tested, and the relative viability ([1]; first compound 0.04 µM) was 0.655, the relative viability ([1]; first compound 0.1265 µM) was 0.647 and the relative viability ([1]; first compound 0.4 µM) was 0.642. The relative viability ([1]; first compound 1.265 µM) was 0.535, the relative viability ([1]; first compound 4 µM) was 0.714 and the relative viability ([2]; first compound 0.04 µM) was 0.8. For the same cell line, the relative viability ([2]; first compound 0.1265 µM) was 0.657, the relative viability ([2]; first compound 0.4 µM) was 0.728 and the relative viability ([2]; first compound 1.265 µM) was 0.687. It also gave a relative viability ([2]; first compound 4 µM) of 0.697, a relative viability ([3]; first compound 0.04 µM) of 1.05 and a relative viability ([3]; first compound 0.1265 µM) of 1.05. The relative viability ([3]; first compound 0.4 µM) was 1.07, the relative viability ([3]; first compound 1.265 µM) was 0.999 and the relative viability ([3]; first compound 4 µM) was 1.13. The relative viability ([4]; first compound 0.04 µM) was 1.13, the relative viability ([4]; first compound 0.1265 µM) was 0.945 and the relative viability ([4]; first compound 0.4 µM) was 1.03. The relative viability ([4]; first compound 1.265 µM) was 1.07 and the relative viability ([4]; first compound 4 µM) was 0.973.

HCC-15 was tested, and the relative viability ([1]; first compound 0.04 µM) was 0.608, the relative viability ([1]; first compound 0.4 µM) was 0.704 and the relative viability ([1]; first compound 1.265 µM) was 0.66. The relative viability ([1]; first compound 4 µM) was 0.615, the relative viability ([2]; first compound 0.04 µM) was 1.01 and the relative viability ([2]; first compound 0.4 µM) was 1.29. It also gave a relative viability ([2]; first compound 1.265 µM) of 1.36, a relative viability ([2]; first compound 4 µM) of 1.19 and a relative viability ([3]; first compound 0.04 µM) of 0.976. It also gave a relative viability ([3]; first compound 0.4 µM) of 0.994, a relative viability ([3]; first compound 1.265 µM) of 0.882 and a relative viability ([3]; first compound 4 µM) of 1.01. For the same cell line, the relative viability ([4]; first compound 0.04 µM) was 0.224, the relative viability ([4]; first compound 0.4 µM) was 0.24 and the relative viability ([4]; first compound 1.265 µM) was 0.226. The relative viability ([4]; first compound 4 µM) was 0.218.

PC-3 [JPC-3] gave a relative viability ([1]; first compound 0.04 µM) of 0.743, a relative viability ([1]; first compound 0.1265 µM) of 0.575 and a relative viability ([1]; first compound 0.4 µM) of 0.742. For the same cell line, the relative viability ([1]; first compound 1.265 µM) was 0.732, the relative viability ([1]; first compound 4 µM) was 0.646 and the relative viability ([2]; first compound 0.04 µM) was 0.825. It also gave a relative viability ([2]; first compound 0.1265 µM) of 0.753, a relative viability ([2]; first compound 0.4 µM) of 0.808 and a relative viability ([2]; first compound 1.265 µM) of 0.73. For the same cell line, the relative viability ([2]; first compound 4 µM) was 0.863, the relative viability ([3]; first compound 0.04 µM) was 1.04 and the relative viability ([3]; first compound 0.1265 µM) was 0.887. For the same cell line, the relative viability ([3]; first compound 0.4 µM) was 0.943, the relative viability ([3]; first compound 1.265 µM) was 0.968 and the relative viability ([3]; first compound 4 µM) was 0.936. For the same cell line, the relative viability ([4]; first compound 0.04 µM) was 1.07, the relative viability ([4]; first compound 0.1265 µM) was 0.944 and the relative viability ([4]; first compound 0.4 µM) was 1.1. For the same cell line, the relative viability ([4]; first compound 1.265 µM) was 1.09 and the relative viability ([4]; first compound 4 µM) was 1.03.

With NCI-H2170 the relative viability ([1]; first compound 0.04 µM) was 0.787, the relative viability ([1]; first compound 0.1265 µM) was 0.582 and the relative viability ([1]; first compound 0.4 µM) was 0.803. The relative viability ([1]; first compound 1.265 µM) was 0.795, the relative viability ([1]; first compound 4 µM) was 0.702 and the relative viability ([2]; first compound 0.04 µM) was 0.77. The relative viability ([2]; first compound 0.1265 µM) was 0.764, the relative viability ([2]; first compound 0.4 µM) was 0.9 and the relative viability ([2]; first compound 1.265 µM) was 0.86. The relative viability ([2]; first compound 4 µM) was 0.963, the relative viability ([3]; first compound 0.04 µM) was 1.01 and the relative viability ([3]; first compound 0.1265 µM) was 1.01. It also gave a relative viability ([3]; first compound 0.4 µM) of 0.998, a relative viability ([3]; first compound 1.265 µM) of 0.943 and a relative viability ([3]; first compound 4 µM) of 1. The relative viability ([4]; first compound 0.04 µM) was 0.279, the relative viability ([4]; first compound 0.1265 µM) was 0.251 and the relative viability ([4]; first compound 0.4 µM) was 0.262. The relative viability ([4]; first compound 1.265 µM) was 0.279 and the relative viability ([4]; first compound 4 µM) was 0.266.

With HARA the relative viability ([1]; first compound 0.04 µM) was 0.433, the relative viability ([1]; first compound 0.1265 µM) was 0.201 and the relative viability ([1]; first compound 0.4 µM) was 0.516. It also gave a relative viability ([1]; first compound 1.265 µM) of 0.454, a relative viability ([1]; first compound 4 µM) of 0.435 and a relative viability ([2]; first compound 0.04 µM) of 0.626. For the same cell line, the relative viability ([2]; first compound 0.4 µM) was 0.329, the relative viability ([2]; first compound 1.265 µM) was 0.262 and the relative viability ([2]; first compound 4 µM) was 0.328. It also gave a relative viability ([3]; first compound 0.04 µM) of 0.889, a relative viability ([3]; first compound 0.1265 µM) of 0.838 and a relative viability ([3]; first compound 0.4 µM) of 0.991. It also gave a relative viability ([3]; first compound 1.265 µM) of 0.932, a relative viability ([3]; first compound 4 µM) of 0.98 and a relative viability ([4]; first compound 0.04 µM) of 0.27. For the same cell line, the relative viability ([4]; first compound 0.4 µM) was 0.267, the relative viability ([4]; first compound 1.265 µM) was 0.3 and the relative viability ([4]; first compound 4 µM) was 0.234.

NCI-H2126 gave a relative viability ([1]; first compound 0.04 µM) of 0.738, a relative viability ([1]; first compound 0.1265 µM) of 0.667 and a relative viability ([1]; first compound 0.4 µM) of 0.729. For the same cell line, the relative viability ([1]; first compound 1.265 µM) was 0.74, the relative viability ([1]; first compound 4 µM) was 0.725 and the relative viability ([2]; first compound 0.04 µM) was 1.02. The relative viability ([2]; first compound 0.1265 µM) was 0.866, the relative viability ([2]; first compound 0.4 µM) was 0.95 and the relative viability ([2]; first compound 1.265 µM) was 0.93. The relative viability ([2]; first compound 4 µM) was 0.957, the relative viability ([3]; first compound 0.04 µM) was 1.17 and the relative viability ([3]; first compound 0.1265 µM) was 1.22. For the same cell line, the relative viability ([3]; first compound 0.4 µM) was 1.19, the relative viability ([3]; first compound 1.265 µM) was 1.22 and the relative viability ([3]; first compound 4 µM) was 1.22. For the same cell line, the relative viability ([4]; first compound 0.04 µM) was 0.707, the relative viability ([4]; first compound 0.1265 µM) was 0.603 and the relative viability ([4]; first compound 0.4 µM) was 0.661. It also gave a relative viability ([4]; first compound 1.265 µM) of 0.726 and a relative viability ([4]; first compound 4 µM) of 0.633.
